System: NIH3T3/vSrc cells
Experiment: WST-1 cell viability/proliferation assay, NIH3T3/vSrc
Assay type: cell-based, mouse
Description: Initial in vitro whole-cell experiments were conducted against normal mouse NIH-3T3 fibroblasts and v-src-transformed counterparts (NIH-3T3/v-src) that harbor aberrant STAT3. Inhibitor effects upon cell viability, proliferation, and cytotoxicity were assessed through WST-1, a cell proliferation reagent that measures the metabolic activity of viable cells. […] It is assumed that the predominantly hydrophobic nature of these compounds facilitated successful permeation of the cell membrane despite the phosphate.

CC(C)C[C@H](NC(=O)[C@H](Cc1ccc(OP(=O)(O)O)cc1)NC(=O)c1ccc(C#N)cc1)C(=O)O [ISS610]
inhibitor concentration required for suppression in whole cells: millimolar concentrations

From patent publication US8969578B2, “Inhibitors of STAT3” (University of Central Florida Research Foundation, Inc., priority 2008, dated 2015)
